Test results taken from article PMC10844353, “Dose–response effects on HbA1c and bodyweight reduction of survodutide, a dual glucagon/GLP-1 receptor agonist, compared with placebo and open-label semaglutide in people with type 2 diabetes: a randomised clinical trial” (Diabetologia, 2023).

What was measured:
[1] = tested on: participants with type 2 diabetes; assay: Phase II trial: adverse events (safety and tolerability); format: in vivo, human; settings: up to 1.0 mg qw open-label
Description: (VAS), the Patient’s Global Impression of Severity (PGI-S) for difficulty to control eating behaviours and the 7-point profile of self-monitoring of blood glucose (SMBG).
At each study visit, participants were advised to adhere to the specific recommended diet and exercise plan provided to them during diet and exercise counselling throughout the study.
Survodutide was made available in vials (2 mg/ml, 1 ml fill volume per vial) for dose escalation in Weeks 1–6 and in pre-filled syringes (various concentrations, 0.5 ml fill volume) for maintenance dose in Weeks 7–16. The placebo solution (isotonic sodium chloride) was filled into identical vials or pre-filled syringes. […]
Safety and tolerability were assessed based on the general occurrence of treatment -emergent adverse even ts, safety laboratory parameters, physical examination, vital sign measurements and 12 -lead ECG . ECG services were externally provided and recordings were evaluated centrally.
(§1) MMRM, as for the primary endpoint, and descriptive statistics. All safety endpoints, NASH-related scores and SMBG were analysed descriptively. […]

[2] = tested on: participants with type 2 diabetes; assay: Phase II trial: exploratory biomarkers and NASH-related scores, change from baseline at EoT; format: in vivo, human; settings: up to 1.0 mg qw open-label, after 16 weeks
Source text: Pharmacodynamic endpoints were the changes from baseline in exploratory biomarkers related to liver function and fatty liver disease (plasma levels of cytokeratin 18 and Pro-C3 and enhanced liver fibrosis [ELF] score), glucose metabolism (adiponectin and fasting insulin and C-peptide levels) and target receptor engagement (amino acid and glucagon levels). Exploratory NASH-related scores (Fibrosis-4 [Fib-4] score, aspartate aminotransferase/platelet ratio [APRI] and non-alcoholic fatty liver disease [NAFLD] fibrosis score) were assessed as safety-related endpoints.
HbA1c was assessed at screening, weeks 1, 5, 8, 12 and 16, EoT and follow-up and analysed centrally. Bodyweight was measured at every visit (screening, weeks 1–8, 12 and 16, EoT and follow-up). Waist circumference was measured at screening, weeks 1 and 6 and EoT. Waist circumference was measured at the midpoint between the lowest rib and the iliac crest. Participants were provided with a glucose monitoring device for weekly use at home during the study. Participant-reported outcomes (Three-Factor Eating Questionnaire [TFEQ-R18 V2], Patient Global Impression of Severity [PGI-S] and a hunger visual analogue scale [VAS]) were assessed at weeks 1, 5 and 8 and EoT in a fasted state. […]
as §1

[3] = Phase II trial: pharmacokinetics (steady state, dose proportionality of trough concentrations); format: in vivo, human
Description: The attainment of steady state and dose proportionality of survodutide were assessed as pharmacokinetic endpoints.
HbA1c was assessed at screening, weeks 1, 5, 8, 12 and 16, EoT and follow-up and analysed centrally. Bodyweight was measured at every visit (screening, weeks 1–8, 12 and 16, EoT and follow-up). Waist circumference was measured at screening, weeks 1 and 6 and EoT. Waist circumference was measured at the midpoint between the lowest rib and the iliac crest. Participants were provided with a glucose monitoring device for weekly use at home during the study. Participant-reported outcomes (Three-Factor Eating Questionnaire [TFEQ-R18 V2], Patient Global Impression of Severity [PGI-S] and a hunger visual analogue scale [VAS]) were assessed at weeks 1, 5 and 8 and EoT in a fasted state. Blood sampling for pharmacokinetics was carried out at every visit (weeks 1–8, 12 and 16, EoT and follow-up) and blood sampling for exploratory biomarkers was carried out at weeks 1, 5, 8 and 12, EoT and follow-up. Safety assessments are described in the ESM Methods.

[4] = tested on: people with type 2 diabetes or overweight/obesity; settings: AWARD-5, 52 weeks; cited from earlier work
Source text: Glucagon-like peptide-1 receptor (GLP-1R) agonists, such as liraglutide and semaglutide, have been developed for the treatment of both type 2 diabetes and obesity. […] Apart from the well-characterised gastrointestinal (GI) adverse events (AEs), GLP-1R agonists are generally well tolerated. ... || Survodutide (BI 456906) is a novel subcutaneous GCGR/GLP-1R dual agonist in development for the treatment of people with type 2 diabetes, obesity and non-alcoholic steatohepatitis (NASH). Addition of a C18 fatty acid into the acylated peptide, as a half-life-extending principle, allows for weekly administration of survodutide. […] In ... || In addition to semaglutide, other GLP-1R agonists now approved for the treatment of type 2 diabetes have been investigated in combination with background metformin therapy. […] The maximum reduct ... || (+ 2 further places)

[5] = in vivo; cited from earlier work

Semaglutide: GLP-1R agonist; open-label reference control, up to 1.0 mg qw
Participants reporting severe AEs [1]: none
Change from baseline in glucagon [2]: no relevant changes

Survodutide
Time at which steady state appeared to be achieved (visually) ([3]; DG1–5, plasma trough concentrations): 8 week
Time at which steady state appeared to be achieved (visually) ([3]; DG6, plasma trough concentrations): 12 week
Dose proportionality of plasma trough concentrations ([3]; escalating weekly or biweekly sc doses): approximately dose-proportional

dulaglutide: GLP-1R agonist approved for the treatment of type 2 diabetes
Bodyweight reduction [4]: –3.1 kg

oxyntomodulin: endogenous proglucagon derivative, GCGR/GLP-1R dual agonist
Half-life [5]: very short
